pEC50: −log10 of the molar value.

The target of the experiment is T1, human RXFP1 (Homo sapiens, UniProt Q9HBX9).
T1 construct: expressed in transfected cells
T1 sequence (Q9HBX9 1-757): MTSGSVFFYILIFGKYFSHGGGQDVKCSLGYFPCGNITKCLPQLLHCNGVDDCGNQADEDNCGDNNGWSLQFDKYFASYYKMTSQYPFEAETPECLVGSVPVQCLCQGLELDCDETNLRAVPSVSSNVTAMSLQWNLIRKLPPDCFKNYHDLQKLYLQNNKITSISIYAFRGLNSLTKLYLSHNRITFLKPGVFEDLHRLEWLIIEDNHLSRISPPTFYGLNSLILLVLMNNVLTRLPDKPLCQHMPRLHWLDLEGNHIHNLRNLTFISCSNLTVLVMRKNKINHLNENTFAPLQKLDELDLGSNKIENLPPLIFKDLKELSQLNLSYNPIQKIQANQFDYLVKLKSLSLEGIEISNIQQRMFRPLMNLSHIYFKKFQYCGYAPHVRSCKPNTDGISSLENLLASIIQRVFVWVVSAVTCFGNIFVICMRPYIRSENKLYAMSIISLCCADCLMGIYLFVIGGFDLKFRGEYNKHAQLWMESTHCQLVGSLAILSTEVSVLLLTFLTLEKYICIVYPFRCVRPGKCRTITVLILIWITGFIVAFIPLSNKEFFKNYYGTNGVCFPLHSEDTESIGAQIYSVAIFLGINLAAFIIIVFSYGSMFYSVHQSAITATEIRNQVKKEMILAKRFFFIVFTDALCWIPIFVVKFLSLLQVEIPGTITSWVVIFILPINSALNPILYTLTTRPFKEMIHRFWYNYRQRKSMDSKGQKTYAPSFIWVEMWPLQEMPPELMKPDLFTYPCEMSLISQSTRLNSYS
Nature of the experiment: RXFP1 cyclic adenosine monophosphate (cAMP) assay, hRXFP1 HEK293. Particulars: HEK293 cells stably expressing human RXFP1; 30 min at room temperature; HTRF cAMP. Format: cell-based. In a few lines: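 HEK293 cells stably expressing human RXFP1 were exposed to compounds (0.010 nM–50 μM, 2% DMSO) for 30 min at room temperature in HBSS/HEPES buffer with 0.5 mM IBMX. Intracellular cAMP was measured by HTRF against a cAMP standard curve; EC50 from 4-parameter logistic fit.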
`COc1ccc(-c2nc3c(s2)CNCC3)cc1C(=O)Nc1cc2c(cc1C(=O)Nc1ccc(F)c(C(F)(F)F)c1)OC(F)(F)O2` [Example 52, 2,2-difluoro-N-(4-fluoro-3-(trifluoromethyl)phenyl)-6-(2-methoxy-5-(4,5,6,7-tetrahydrothiazolo[5,4-c]pyridin-2-yl)benzamido)benzo[d][1,3]dioxole-5-carboxamide]: the pEC50 (commonly −log10 of the EC50, conventionally taken in molar units) is 6.17.
Next, `COc1ccc(C2CC3(C2)CN(C(=O)C(C)(C)O)C3)cc1C(=O)Nc1cc2c(cc1C(=O)Nc1ccc(F)c(C(F)(F)F)c1)OC(F)(F)O2` [Example 97, 2,2-difluoro-N-(4-fluoro-3-(trifluoromethyl)phenyl)-6-(5-(2-(2-hydroxy-2-methylpropanoyl)-2-azaspiro[3.3]heptan-6-yl)-2-methoxybenzamido) benzo[d][1,3]dioxole-5-carboxamide]: 6.18; `COc1ccc(C2CCNC2)cc1C(=O)Nc1cc2c(cc1C(=O)Nc1ccc(F)c(C(F)(F)F)c1)OC(F)(F)O2` (single isomer, unassigned) [Example 54, 2,2-difluoro-N-(4-fluoro-3-(trifluoromethyl)phenyl)-6-(2-methoxy-5-(pyrrolidin-3-yl)benzamido)benzo[d] [1,3]dioxole-5-carboxamide]: 6.17.
In turn, `COc1ccc(C2=NOC3C4CC(C(=O)N4)C23)cc1C(=O)Nc1cc2nc(C)sc2cc1C(=O)Nc1ccc(F)c(C(F)(F)F)c1` (stereo not shown) [Example 15, N-(4-fluoro-3-(trifluoro-methyl)phen-yl)-5-(2-meth-oxy-5-(5-oxo-3a,4,5,6,7,7a-hexahydro-4,7-methano-isoxazolo[5,4-c]pyridin-3-yl)benzami-do)-2-methyl-benzo[d]thi-azole-6-car-boxamide] had a pEC50 of 6.74.
In the case of `COc1ccc(C2=NOC3CN(CC(C)(C)O)CC23)cc1C(=O)Nc1cc2c(cc1C(=O)Nc1ccc(F)c(C(F)(F)F)c1)OC(F)(F)O2` (stereo not shown) [Example 45, 2,2-difluoro-N-(4-fluoro-3-(trifluoromethyl)phenyl)-6-(5-(5-(2-hydroxy-2-methylpropyl)-3a,5,6,6a-tetrahydro-4H-pyrrolo[3,4-d]isoxazol-3-yl)-2-methoxybenzamido)benzo[d][1,3]dioxole-5-carboxamide], the pEC50 was 8.22.
Regarding `COc1ccc(-c2cc(C(=O)Nc3cc[nH]n3)ccc2F)cc1C(=O)Nc1cc2c(cc1C(=O)Nc1ccc(F)c(C(F)(F)F)c1)OC(F)(F)O2` [Example 48], the pEC50 was 6.71.
With `COc1cc(F)c(C2=NOC3CC(CO)CC23)cc1C(=O)Nc1cc2c(cc1C(=O)Nc1ccc(F)c(C(F)(F)F)c1)OC(F)(F)O2` (stereo not shown) [Example 102, 2,2-difluoro-N-(4-fluoro-3-(trifluoromethyl)phenyl)-6-(4-fluoro-5-(5-(hydroxymethyl)-3a,5,6,6a-tetrahydro-4H-cyclopenta[d]isoxazol-3-yl)-2-methoxybenzamido) benzo[d][1,3]dioxole-5-carboxamide] the figure was 7.97; with `COc1ccc(C2=NOC(C)(CO)C2)cc1C(=O)Nc1cc2c(cc1C(=O)Nc1ccc(F)c(C(F)(F)F)c1)OC(F)(F)O2` (single isomer, unassigned) [Example 71, 2,2-difluoro-N-(4-fluoro-3-(trifluoromethyl)phenyl)-6-(5-(5-(hydroxymethyl)-5-methyl-4,5-dihydroisoxazol-3-yl)-2-methoxybenzamido) benzo[d][1,3]dioxole-5-carboxamide], 7.37; with `COc1ccc(C2=NOC3COCC23)cc1C(=O)Nc1cc2nc(C)sc2cc1C(=O)NC1CCCC1` (stereo not shown) [Example 29, N-cyclopentyl-5-(2-methoxy-5-(3a,4,6,6a-tetrahydrofuro [3,4-d]isox-azol-3-yl)-benzamido)-2-methylbenzo [d]thiazole-6-carboxamide], 5.57.
As to `COc1ccc(-c2cc(C(C)(C)O)on2)cc1C(=O)Nc1cc2c(cc1C(=O)Nc1ccc(F)c(C(F)(F)F)c1)OC(F)(F)O2` [Example 74], the pEC50 was 6.90.
As for `COCCOC1(C2CC(c3ccc(OC)c(C(=O)Nc4cc5nc(C)sc5cc4C(=O)Nc4ccc(F)c(C(F)(F)F)c4)c3)=NO2)CC1` (stereo not shown) [Example 12, N-(4-fluoro-3-(trifluorometh-yl)phenyl)-5-(2-methoxy-5-(5-(1-(2-meth-oxyethoxy)-cyclopropyl)-4,5-dihydro-isoxazol-3-yl)-benzamido)-2-methylbenzo [d]thiazole-6-carboxamide], the pEC50 was 6.54.
Next, `COc1ccc(C#CCO)cc1C(=O)Nc1cc2c(cc1C(=O)Nc1ccc(F)c(C(F)(F)F)c1)OC(F)(F)O2` [Example 59, 2,2-difluoro-N-(4-fluoro-3-(trifluoromethyl)phenyl)-6-(5-(3-hydroxyprop-1-yn-1-yl)-2-methoxybenzamido) benzo[d][1,3]dioxole-5-carboxamide]: 7.39; `COc1ccc(N2CC(CO)CC2=O)cc1C(=O)Nc1cc2nc(C)sc2cc1C(=O)Nc1ccc(F)c(C(F)(F)F)c1` (stereo not shown) [Example 13, N-(4-fluoro-3-(trifluorometh-yl)phenyl)-5-(5-(4-(hy-droxymethyl)-2-oxopyrroli-din-1-yl)-2-methoxybenz-amido)-2-methylbenzo [d]thiazole-6-carboxamide]: 6.27.
Turning to `COc1ccc(C2=NOC3CN(C(=O)CO)CC23)cc1C(=O)Nc1cc2c(cc1C(=O)Nc1ccc(F)c(C(F)(F)F)c1)OC(F)(F)O2` (stereo not shown) [Example 44, 2,2-difluoro-N-(4-fluoro-3-(trifluoromethyl)phenyl)-6-(5-(5-(2-hydroxyacetyl)-3a,5,6,6a-tetrahydro-4H-pyrrolo[3,4-d]isoxazol-3-yl)-2-methoxybenzamido)benzo[d][1,3]dioxole-5-carboxamide], the pEC50 was 7.80.
With `COc1ccc(C#CC(C)(C)O)cc1C(=O)Nc1cc2c(C)noc2cc1C(=O)Nc1ccc(F)c(C(F)(F)F)c1` [Example 34, N-(4-fluoro-3-(trifluoromethyl)phenyl)-5-(5-(3-hydroxy-3-methylbut-1-yn-1-yl)-2-methoxybenzamido)-methylbenzo[d]isoxazole-6-carboxamide] the figure was 5.87.
With `COc1ccc(C2=NOC3CC(CO)CC23)cc1C(=O)Nc1cc2nc(C)sc2cc1C(=O)NC1CCCC1` (stereo not shown) [Example 19, N-cyclopent-yl-5-(5-(5-(hydroxymeth-yl)-3a,5,6,6a-tetrahydro-4H-cyclopenta[d]isoxazol-3-yl)-2-methoxy-benzamido)-2-methylbenzo [d]thiazole-6-carboxamide] the figure was 6.00.
Take `COc1ccc(C(=O)NCC2(S(C)(=O)=O)CC2)cc1C(=O)Nc1cc2c(cc1C(=O)Nc1ccc(F)c(C(F)(F)F)c1)OC(F)(F)O2` [Example 35, N3-(2,2-difluoro-6-((4-fluoro-3-(trifluoromethyl)phenyl)carbamoyl)benzo[d][1,3]dioxol-5-yl)-4-methoxy-N1-((1-(methylsulfonyl)cyclopropyl)methyl)isophthalamide]: the pEC50 was 8.22.
In turn, `CC(C)(C)NS(=O)(=O)c1ccc(F)c(-c2cc3c(c(C(=O)Nc4cc5c(cc4C(=O)Nc4ccc(F)c(C(F)(F)F)c4)OC(F)(F)O5)c2)OC(C)(C)C3)c1` [Example 101, 6-(5-(5-(N-(tert-butyl)sulfamoyl)-2-fluorophenyl)-2,2-dimethyl-2,3-dihydrobenzofuran-7-carboxamido)-2,2-difluoro-N-(4-fluoro-3-(trifluoromethyl)phenyl) benzo[d][1,3]dioxole-5-carboxamide] showed a pEC50 of 8.01.
Next, `COc1ccc(C2=NOC(CO)C2)cc1C(=O)Nc1cc2c(cc1C(=O)Nc1ccc(F)c(C(F)(F)F)c1)OC(F)(F)O2` (single isomer, unassigned) [Example 72, 2,2-difluoro-N-(4-fluoro-3-(trifluoromethyl)phenyl)-6-(5-(5-(hydroxymethyl)-4,5-dihydroisoxazol-3-yl)-2-methoxybenzamido) benzo[d][1,3]dioxole-5-carboxamide]: 7.19; `COc1ccc(C2=NOC3CC(O)CC23)cc1C(=O)Nc1cc2nc(C)sc2cc1C(=O)Nc1ccc(F)c(C(F)(F)F)c1` (single isomer, unassigned) [Example 8, N-(4-fluoro-3-(trifluorometh-yl)phenyl)-5-(5-(5-hydroxy-3a,5,6,6a-tetra-hydro-4H-cyclopenta[d]isoxazol-3-yl)-2-methoxy-benzamido)-2-methylbenzo [d]thiazole-6-carboxamide]: 7.40.
`COc1ccc(C2CCCN(CC(N)=O)CC2)cc1C(=O)Nc1cc2c(cc1C(=O)Nc1ccc(F)c(C(F)(F)F)c1)OC(F)(F)O2` (stereo not shown) [Example 96, 6-(5-(1-(2-amino-2-oxoethyl)azepan-4-yl)-2-methoxybenzamido)-2,2-difluoro-N-(4-fluoro-3-(trifluoromethyl)phenyl) benzo[d][1,3]dioxole-5-carboxamide] gave a pEC50 of 6.47.
Next, `COc1ccc(C2=NOC3COCC23)cc1C(=O)Nc1cc2c(cc1C(=O)Nc1ccc(F)c(C(F)(F)F)c1)OC(F)(F)O2` (stereo not shown) [Example 79]: 6.56.

These data come from patent publication US20250066344A1 (BRISTOL-MYERS SQUIBB COMPANY, priority 2021, published 2025).
